Experimental findings from patent publication US10376589B2, “Method for the treatment of a solid tumour” (The University of Sydney, priority 2011, dated 2019) are described below.

Broadly, the IC50 is the concentration that gives 50% inhibition. Read a high IC50 as weaker potency.

Format in all cases: cell-based, human
In assay [1] the test system is PA-1 ovarian cancer cells. Briefly: MTT cytotoxicity assay, 72 hrs. The note with it: PA-1, MTT. The procedure:
(§1) Human DLD-1 colon cancer cells and human PA-1 ovarian cancer cells were obtained from the American Type Culture Collection (Manassas, Va., USA). Cells were maintained in complete media (Advanced DMEM (Invitrogen) and supplemented with 2% foetal bovine serum (Sigma) and 2 mM Glutamax™ (Invitrogen)) at 37° C. in a humidified, 5% CO2 atmosphere. Spheroids were formed by plating 1.5×10^5 cells/ml onto agarose coated 96 well imaging plates (BD Biosciences) and the cells allowed to aggregate for 72 hrs at 37° C. in a humidified, 5% CO2 atmosphere resulting in the formation of single spheroid per well.
(§2) Active compounds and/or nanoparticles were diluted as required in cell media immediately prior to the assay. Cytotoxicity was determined using the MTT assay as follows. 1×10^5 cells were seeded onto each well of flat bottomed 96-well plates and allowed to attach overnight. Solutions of compounds+/−nanoparticles were added to triplicate wells at concentrations spanning a 4-log range and incubated for 72 hrs. MTT (3-(4, 5-dimethylthiazolyl-2)-2,5-diphenyltetrazolium bromide) (1.0 mM) was added to each well and were incubated for a further 4 hrs. The culture medium was removed from each well, DMSO (150 μL) was added, the plate shaken for 5 seconds and the absorbance measured immediately at 600 nm in a Victor^3V microplate reader (Perkin Elmer). IC50 values were determined as the drug concentration that reduced the absorbance to 50% of that in untreated control wells. At least three independent experiments were performed for each compound with triplicate readings in each experiment.
Background: Formazan colour is commonly taken as a measure of viable cells.

Assay [2] has as its system DLD-1 colon cancer cells. Briefly: MTT cytotoxicity assay, 72 hrs. The settings on record: DLD-1, MTT; for IC50: Homo sapiens. The procedure:
as §1, §2

Assay [3] relates to DLD-1 spheroids. Briefly: Cisplatin accumulation in spheroids by atomic absorption spectroscopy. The settings on record: cisplatin 6 ppm without iron oxide particles, 48 hours incubation. How it is done: as §1
DLD-1 spheroids prepared as per example 25 were dosed as with 100 μl of solution of complete media containing cisplatin and iron oxide nanoparticles from examples 1 and 2 to yield a final concentration of both cisplatin and iron oxide of 6 ppm. The spheroids with iron oxide particles and cisplatin were replaced in the incubator and maintained at 37° C. in a 5% CO2 atmosphere. After 48 hours incubation, the free cisplatin and nanoparticles in the media were washed with excess phosphate buffered saline.

The test system of assay [4] is DLD-1 spheroids. Description: Confocal imaging of fluorescent active compound diffusion into spheroids. The procedure: as §1
(a) To the suspension of the 3 day old spheroids from example 25, 100 μl of a solution containing nanoparticles incomplete media was added to each spheroid, to yield a final concentration of particles of 10 ppm in 200 μl total volume. he spheroids were replaced in an incubator at 37° C., 5% CO2. […]
DLD-1 spheroids from example 25 were either dosed with NP2 (example 2), which are particles coated with a stabiliser containing a phosphate anchoring group or NP19 or NP23 (examples 19 and 23), which are particles coated with a stabiliser that has no anchoring portion as per example 27b. The spheroid was then imaged by confocal microscopy (as per example 28) to visualise doxorubicin fluorescence.

Assay [5] concerns PA-1 spheroids. Briefly: Spheroid outgrowth assay. The procedure: as §1
(a) To the suspension of the 3 day old spheroids from example 25, 100 μl of a solution containing nanoparticles incomplete media was added to each spheroid, to yield a final concentration of particles of 10 ppm in 200 μl total volume. he spheroids were replaced in an incubator at 37° C., 5% CO2. After 24 hours incubation, the nanoparticles in the media were removed by washing with excess phosphate buffered saline prior to further experimentation. […]
Spheroids from example 25 were treated as per example 27b and 27c. […] Widefield fluorescence images of the brightfield and Hoechst 33342 stained nuclei were taken of the cells that had grown out from the spheroid (Olympus CellR). To quantitate the outgrowth, the number of nuclei within a 60° angle from the edge of the spheroid was counted. […]

For the molecule `O=c1[nH]cc(F)c(=O)[nH]1` [5-Fluorouracil], the concentration for half-maximal inhibition (IC50) in assay [1] (Homo sapiens) and in assay [2] was 10 µM in each case.
Turning to `N.N.[Cl][Pt][Cl]` [Cisplatin], the IC50 in assay [1] was 0.6 µM. Moreover, the “concentration of cisplatin in the spheroids” value in assay [3] is reported as 0.20 ppb.
On to `COc1cccc2c1C(=O)c1c(O)c3c(c(O)c1C2=O)C[C@@](O)(C(=O)CO)C[C@@H]3O[C@H]1C[C@H](N)[C@H](O)[C@H](C)O1` [Doxorubicin], for which the “doxorubicin diffusion into the spheroid” value in assay [4] (doxorubicin alone) was “approximately 70 μm”. Besides, the concentration for half-maximal inhibition (IC50) in assay [1] (Homo sapiens) and in assay [2] was 1 µM throughout.
As to `O=C1c2c(O)ccc(O)c2C(=O)c2c(NCCNCCO)ccc(NCCNCCO)c21` [Mitoxantrone], in assay [4] (mitoxantrone alone), the “mitoxantrone diffusion into the spheroid” value is recorded as “approximately 70 μm”. For the same molecule, in assay [5] (PA-1 spheroids), the “effectiveness, co-administration versus administration of active compound delayed 24 hours” value is “requires the co-administration of nanoparticles”. In addition, the “effectiveness in PA-1 compared to DLD-1 spheroids” value in assay [5] (active compound co-administered with nanoparticles (examples 2, 3, 4, 5)) is reported as “significantly more effective”. Besides, the figures for the IC50 in assay [1] (Homo sapiens) and in assay [2] were 0.02 µM and 0.04 µM, respectively.
As to `CC(=O)O[C@H]1C(=O)[C@@]2(C)[C@H]([C@H](OC(=O)c3ccccc3)[C@]3(O)C[C@H](OC(=O)[C@H](O)[C@@H](NC(=O)c4ccccc4)c4ccccc4)C(C)=C1C3(C)C)[C@]1(OC(C)=O)CO[C@@H]1C[C@@H]2O` [Paclitaxel], the “72 hr IC50” value in assay [1] (result in words) and in assay [2] (result in words) was “indeterminable*” in each case.
